Results: US20180113115A1, “SCREENING ASSAYS BASED ON MAG AND/OR ABHD6 FOR SELECTING INSULIN SECRETION PROMOTING AGENT” (VAL-CHUM, LIMITED PARTNERSHIP, priority 2010, published 2018)
Entries after “also recorded” stand apart in the source; their conditions may differ.

Tests used:
INS 832/13 cells [1] = assay: Insulin secretion measurement in INS 832/13 cells (static incubation); format: cell-based; details: for KCl-stimulated insulin secretion: 35 mM KCl; for KCl-stimulated insulin secretion / insulin secretion stimulated by leucine+glutamine: 1 mM glucose, 10 μM WWL70 or 10 μM AMG9810; for insulin secretion stimulated by leucine+glutamine: Gln+Leu 5 mM each; for glucose-stimulated insulin secretion (GSIS): increasing glucose (5 and 10 mM), 10 μM WWL70, 50 μM orlistat, 1 μM JZL184
Method: (§1) INS 832/13 cells (Hohmeir et al.) were cultured at 37° C. in a humidified atmosphere containing 5% CO2 in RPMI 1640 with sodium bicarbonate, supplemented with 10% (v/v) fetal calf serum (Wisent), 10 mM HEPES, pH 7.4, 2 mM L-glutamine, 1 mM sodium pyruvate and 50 μM β-mercaptoethanol (complete RPMI). Cells were grown to 80% confluence. Media were changed to RPMI 1640 containing 3 mM glucose supplemented as the complete RPMI 24 h prior to the experiments. Insulin secretion incubations were conducted in Krebs-Ringer bicarbonate buffer containing 10 mM HEPES, pH 7.4 (KRBH).
INS 832/13 cells were washed in KRBH containing 1 mM glucose and 0.5% defatted BSA (KRBH 1G/0.5% BSA) and pre-incubated for 45 min in KRBH 1G/0.5% BSA in presence of pharmacological agents (at indicated concentrations) or vehicle (DMSO). […] When examining the effect of 2-AG, it was added to cells at 0 to 1 μM concentration at 2 mM and 10 mM glucose. Insulin secretion from INS 832/13 cells was measured from either 45-min or 2-h static incubations in KRBH containing various glucose concentrations, 0.5% defatted BSA and pharmacological agents or vehicle, with or without 35 mM KCl or 0.3 mM palmitate, as specified.

INS 832/13 cells [2] = assay: Effect of lipase inhibitors on [U-14C]-glucose incorporation into lipids; format: cell-based; details: for glucose incorporation into 1-monoacylglycerol (1-MAG) / glucose incorporation into 2-monoacylglycerol (2-MAG) / glucose incorporation into diacylglycerol (DAG) / glucose incorporation into triglycerides (TG): 10 μM WWL70, 1 μM JZL184
Method: as §1
INS 832/13 cells were incubated overnight at 11 mM [U-^14C]-glucose in RPMI medium in a CO2-incubator in order to pre-label all the lipids in the cells. Then the cells were washed in KRBH (1 mM [U-^14C]-glucose) and pre-incubated for 45 min in KRBH at 1 mM [U-^14C]-glucose to bring metabolism to basal level. After this, cells were further incubated for 2 h in KRBH at 1 and 10 mM [U-^14C]-glucose and the indicated inhibitors. […] Then the cells were washed rapidly and flash-frozen in liquid nitrogen and extracted for lipids. Lipids were separated by TLC and the associated radioactivity was quantified. Neutral lipids were separated on boric acid/silica gel-TLC, with two solvent systems, first petroleum ether: diethyl ether: acetic acid (70:30:1), followed by second solvent system up to half of the plates, chloroform: acetone: acetic acid (60:40:1). Phospholipids were separated with a solvent system, chloroform: methanol: water (65:25:4).

rat intact islets = assay: GSIS in isolated intact rat islets; format: cell-based
Text: (§2) All procedures were approved by the Institutional Committee for the Protection of Animals at the Centre Hospitalier de l'Université de Montreal Research Center. Wistar rats or […] mice or CD1 mice (all male) from Charles River (St-Constant, QC, Canada) were anaesthetized with Somnotol® (MTC Pharmaceuticals, Canada) and sacrificed by exsanguination. Pancreatic islets were isolated by collagenase (type XI from Sigma) digestion of total pancreas (Gotoh et al.), followed by separation (centrifugation at 1040×g) on a Histopaque™ 1119, 1077 (Sigma) gradient. Isolated islets were handpicked and cultured overnight in a petri dish at 37° C. in a humidified atmosphere containing 5% CO2 in RPMI 1640 with sodium bicarbonate, supplemented with 10% fetal calf serum, 10 mM HEPES pH 7.4, 2 mM L-glutamine, 1 mM sodium pyruvate, 100 U/mL penicillin and 100 μg/mL streptomycin.
(§3) For insulin secretion from rat, mouse or human islets, batches of 10 islets were washed in KRBH containing 2.8 mM glucose and 0.5% defatted BSA, and pre-incubated for 45 min in KRBH containing 2.8 mM glucose, 0.5% defatted BSA and different pharmacological agents (at indicated concentrations) or DMSO. […] Total insulin contents and media insulin concentrations were determined by radioimmunoassay using human insulin standards (Linco Research, Mo.).

[3] = tested on: dispersed rat islet cells; assay: GSIS in dispersed rat islet cells; format: cell-based; details: 20 μM WWL70, 20 μM AMG9810 or combination
Text: as §2, with “streptomycin. […]” for “streptomycin.”
as §3

[4] = tested on: isolated CD1 mouse islets; assay: GSIS in isolated CD1 mouse islets; format: cell-based; details: for GSIS: 20 μM WWL70 or 20 μM AMG9810 alone
Text: as §2
(§4) For insulin secretion from rat, mouse or human islets, batches of 10 islets were washed in KRBH containing 2.8 mM glucose and 0.5% defatted BSA, and pre-incubated for 45 min in KRBH containing 2.8 mM glucose, 0.5% defatted BSA and different pharmacological agents (at indicated concentrations) or DMSO. Islets were then incubated for either 45 min or 2 h in KRBH containing various glucose concentrations or 2.8 mM glucose plus 35 mM KCl, 0.5% defatted BSA in the presence or absence of drugs (at indicated concentrations) or vehicle (DMSO). At the end of the incubation, media were collected and insulin extracted from cells or islets in acid-ethanol (1.5% HCl, 75% ethanol). Total insulin contents and media insulin concentrations were determined by radioimmunoassay using human insulin standards (Linco Research, Mo.).

[5] = tested on: isolated C57Bl6 mouse islets; assay: GSIS in isolated C57Bl6 mouse islets; format: cell-based; details: for GSIS: 20 μM WWL70 or 20 μM AMG9810 alone, 2.8 and 11.1 mM glucose
Text: as §2, §4

human intact islets = assay: GSIS in human intact islets; format: cell-based; details: one donor; for GSIS: 20 μM WWL70 or 20 μM AMG9810 alone
Method: Human islets were obtained from the Human Islet Isolation Core of MDRC, following appropriate ethical guidelines. The donor was a […] without any known metabolic disease. Islets were hand-picked and cultured overnight before use. Both rodent and human islets were also treated with trypsin to disperse islet cells and then cultured overnight in RPMI complete medium. These overnight cultured dispersed islets cells were then used for examining the effect of various pharmacological agents.
as §4

CD1 mice = assay: Oral glucose tolerance test (OGTT); format: in vivo, mouse; details: WWL70 10 mg/kg intraperitoneally 2 h prior to oral glucose 2 g/kg
Method: Normal CD1 mice were fasted for 4 h prior to the oral glucose tolerance test (OGTT). […] Control mice (6) were given only vehicle. After 2 h, all mice were given a oral gavage of glucose (2 g/kg of body weight), followed by blood collection from the tail vein at the indicated times. Blood glucose (glucometer; Accu-Check™, Roche Applied Science) and plasma insulin (ELISA) (insulin mouse ultrasensitive electroimmunoassay, ALPCO Diagnostics, Salem, N.H.) were measured.

[6] = tested on: INS832/13 cell membrane extracts; assay: 1-OG (MAG) hydrolysis by cell membrane extracts, released oleic acid by HPLC; format: biochemical; details: 50 μM 1-oleoylglycerol, 1 h at 30° C.
Method: 8 μg of […] cell membrane extracts were incubated with 50 μM of MAG (1-oleoylglycerol) and the indicated inhibitors for 1 h at 30° C. Released oleic acid was measured by HPLC after Dole's extraction and derivatization with bromoacetaminophenone.

MAG lipase (MAGL) = details: cited from earlier work
ABHD12 = details: cited from earlier work
INS832/13 cells = assay: RNAi-knockdown of ABHD6, insulin secretion; format: cell-based; details: siRNA transfection; for glucose-stimulated insulin secretion: 10 mM glucose
Method: INS 832/13 cells were plated at a density of 150 000 cells/well in a 12-well plate, in 1 ml complete RPMI medium, one day prior to RNAi transfection. On the next day, RNAi duplexes and lipofectamine-RNAimax™ were prepared separately. Then 24 pmol of each RNAi duplex was diluted in 100 μl Opti-MEM™ without serum and mixed gently. And at the same time, 2 μl of lipofectamine-RNAimax was diluted in 100 μl Opti-MEM without serum and mixed gently. Then the diluted RNAi duplex and RNAi-max reagents were mixed gently (200 μl volume) and incubated at room temperature for 20 min. This 200 μl mixture (which gives a final concentration of […] of RNAi), prepared separately for each well, was then added to the corresponding well with approximately 30% confluent INS cells. Following RNAi transfection, cells were incubated for 16 to 72 h. in a CO2 incubator at 37° C. Then the cells were starved by incubation in RPMI-1640 with 10% FBS and 1 mM glucose for 2 h. followed by washing one time with KRBH (containing 1 mM glucose and 0.5% BSA) and pre-incubation with the same KRBH for 45 min. Finally for following insulin secretion, cells were incubated in the KRBH buffer with 1 mM or 10 mM glucose for 2 h. The media and the cells were collected for insulin and protein assay as described above. The ABHD6-directed siRNAs and the control siRNAs were obtained from Ambion (Catalog #4390771; […]tt (ABHD6-6 sense or SEQ ID NO: 9), […]gt (ABHD6-6 anti-sense or SEQ ID NO: 10), […]tt (ABHD6-5 sense or SEQ ID NO: 11), […]at (ABHD6-5 anti-sense or SEQ ID NO: 12)). ABHD6-6 sense and antisense oligos are used in a similar fashion. Control siRNAs, which are non-targeting siRNAs with limited sequence similarity to known genes were obtained from Ambion (Catalog #AM4613 and AM4642) and were used to transfect the cells as described above. Additionally, non-treated cells and pBS (plasmid vector Bluescript) transfected cells were used as controls as well. Results of insulin secretion and ABHD6 expression in ABHD6-siRNA transfected cells were compared with different controls.

TRPV1-R = details: in vivo; cited from earlier work
[7] = 1 and 10 mM [U14C]-glucose, 50 μM orlistat
[8] = 20 μM AMG9810, with 20 μM WWL70

Molecule	KCl-stimulated insulin secretion (INS 832/13 cells [1])	insulin secretion stimulated by leucine+glutamine (INS 832/13 cells [1])	glucose-stimulated insulin secretion (GSIS) (INS 832/13 cells [1])	glucose incorporation into 1-monoacylglycerol (1-MAG) (INS 832/13 cells [2]; [7])	glucose incorporation into 2-monoacylglycerol (2-MAG) (INS 832/13 cells [2]; [7])	glucose incorporation into diacylglycerol (DAG) (INS 832/13 cells [2]; [7])	glucose incorporation into triglycerides (TG) (INS 832/13 cells [2]; [7])	GSIS [3]	GSIS [4]	GSIS [5]	GSIS (human intact islets)	effect on MAG lipase (MAGL) (MAG lipase (MAGL))	glucose-stimulated insulin secretion (INS832/13 cells)	also measured
CN(Cc1cccc(-c2ccncc2)c1)C(=O)Oc1ccc(-c2ccc(C(N)=O)cc2)cc1 [WWL70]	Neither WWL70 nor AMG9810 had any effect	enhanced	almost doubled the GSIS; also recorded: robust increase	elevation	elevation	Neither of the inhibitors had any effect	marginal effect	enhancement	enhanced GSIS	enhancement	enhancement	no effect		portion of GSIS amplified by palmitate (INS 832/13 cells [1]; 10 μM WWL70, glucose + palmitate): not further enhanced; WWL70 concentration reaching near maximal enhancement of GSIS (INS 832/13 cells [1]; 5 mM and 10 mM glucose): ~10 µM; decrease of FFA release (fraction) (INS 832/13 cells [2]; 10 μM WWL70): about ⅔; glucose incorporation into phospholipids (INS 832/13 cells [2]; 1 and 10 mM [U14C]-glucose, 50 μM orlistat, 10 μM WWL70): None of the lipase inhibitors had any significant effect; GSIS (rat intact islets; 20 μM WWL70): enhanced GSIS; glycemia (CD1 mice): better controlled the glycemia; plasma insulin levels (CD1 mice): significantly elevated; 1-OG hydrolysis activity (released oleic acid) [6]: inhibited the 1-OG hydrolysis activity; effect on ABHD12 (ABHD12): no effect
O=C(Oc1ccc([N+](=O)[O-])cc1)N1CCC(C(O)(c2ccc3c(c2)OCO3)c2ccc3c(c2)OCO3)CC1 [JZL184]			no effect	elevated	elevated	no effect	no effect					specifically inhibits MAGL		release of [U14C]-free fatty acids (FFA) (INS 832/13 cells [2]; 1 and 10 mM [U14C]-glucose, 50 μM orlistat, 1 μM JZL184): no effect
ABHD6-siRNA6: annealed ABHD6-6 sense (SEQ ID NO: 9) and anti-sense (SEQ ID NO: 10) oligos, ABHD6-directed siRNA from Ambion (sense CGGAAAUUGUUUUUGGAAATT; antisense UUUCCAAAAACAAUUUCCGGT; chemistry not given here)													significantly elevated	
ABHD6-siRNA5: annealed ABHD6-5 sense (SEQ ID NO: 11) and anti-sense (SEQ ID NO: 12) oligos, ABHD6-directed siRNA from Ambion (sense CAGUUUGUAGAAUGCCUUATT; antisense UAAGGCAUUCUACAAACUGAT; chemistry not given here)													significantly elevated	basal insulin secretion (INS832/13 cells; 1 mM glucose): increased
CC(C)(C)c1ccc(/C=C/C(=O)Nc2ccc3c(c2)OCCO3)cc1 [AMG9810]	Neither WWL70 nor AMG9810 had any effect	inhibited						inhibition of GSIS	without significant effect on GSIS per se	without significant effect on GSIS per se	without significant effect on GSIS per se			WWL70-enhanced GSIS (INS 832/13 cells [1]; 10 μM WWL70, AMG9810 at 10 μM, 1, 5, 10 mM glucose): completely antagonized the WWL70 stimulation; GSIS, AMG9810 alone (INS 832/13 cells [1]; 1, 5, 10 mM glucose, AMG9810 concentration series): dose-dependently reduces GSIS; WWL70-enhanced GSIS (rat intact islets; 20 μM WWL70 + 20 μM AMG9810): antagonized; WWL70-enhanced GSIS ([4]; 20 μM WWL70 + 20 μM AMG9810): antagonized; GSIS inhibition by AMG9810 (WWL70-augmented) [5, 8]: inhibition of GSIS; GSIS inhibition by AMG9810 (WWL70-augmented) (human intact islets; [8]): inhibition of GSIS
C=C(C)[C@]12C[C@@H](C)[C@@]34O[C@](Cc5ccccc5)(O[C@@H]1[C@@H]3C=C(COC(=O)Cc1ccc(O)c(OC)c1)C[C@]1(O)C(=O)C(C)=C[C@@H]41)O2 [resiniferatoxin]														plasma insulin levels (TRPV1-R): elevates plasma insulin levels
